# According to patent publication US20240189315A1, “Cyclic Pyridine Derivatives as cGAS Inhibitors” (Boehringer Ingelheim International GmbH, priority 2022, published 2024):
# pIC50: −log10 of the molar value. Where two headings read alike, the source gives them in different places.
# Experiments:
# [1] = target: cellular cGAS activity in baculovirus-stimulated THP1-Dual cells (Homo sapiens (Human), UniProt Q8N884); assay: Human cGAS cell assay (THP1(vir) IC50): IFN induction in virus-stimulated THP1-Dual cells, IRF Lucia luciferase reporter; format: cell-based;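 note: Eight-point dilution series starting at 10 µM, 1% DMSO, 18 h at 37 °C, luminescence read-out, virus-free wells as 0% and DMSO-treated virus-stimulated wells as 100%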
# [2] = tested on: pathway directly downstream of cGAS in cGAMP-stimulated THP1-Dual cells; assay: cGAMP stimulated counter cell assay (THP1(cGAMP) IC50): IFN induction in cGAMP-stimulated THP1-Dual cells; format: cell-based, human; conditions: for pIC50: Homo sapiens, THP1-Dual; for Ratio THP(cGAMP) IC50/ THP(vir) IC50: selectivity for cGAS inhibition
# From the text: 6.2 Method: Human cGAS Cell Assay and cGAMP Stimulated Counter Cell Assay (THP1(vir) IC50 and THP1(cGAMP) IC50)
# THP1-Dual™ cells (InvivoGen #thpd-nfis) expressing IRF dependent Lucia luciferase reporter were used as basis for both assays. For the detection of cellular cGAS activity cells were stimulated by a baculovirus (pFastbac-1, Invitrogen, no coding insert) infection that delivers the cGAS enzyme stimulating double-stranded DNA (measurement of THP1(vir) IC50).
# For the counter assay, cells were stimulated by cGAMP (SigmaAldrich #SML1232) to activate the identical pathway independent and directly downstream of cGAS (measurement of THP1(cGAMP) IC50). Pathway activity was monitored by measuring the Lucia luciferase activity induced by either DNA stimulated cGAS enzyme activity (measurement of THP1(vir) IC50) or by cGAMP directly (measurement of THP1(cGAMP) IC50, counter assay).
# Compounds were delivered in 10 mM DMSO solution, serially diluted and transferred to the 384 well assay plate (Greiner #781201) using an Echo acoustic dispenser. Typically, 8 concentrations were used with the highest concentration at 10 μM in the final assay volume followed by ˜1:5 dilution steps. DMSO concentration was set to 1% in the final assay volume. The 384 well assay plate contained 21 test compounds (column 1-22), and DMSO in column 23 and 24.
# Cells, cultivated according to manufacturer conditions, were harvested by centrifugation at 300 g/10 min and were then resuspended and diluted to 1.66E5 cells/ml in fresh cell culture medium (RPMI 1640 (Gibco #A10491-01), 10% FCS (Gibco #10500), 1× GlutaMax (Gibco #35050-061), 1× Pen/Strep solution (Gibco #15140-122), 100 μg/ml Normocin (InvivoGen #ant-nr), 100 μg/ml Zeocin (InvivoGen #ant-zn), 10 μg/ml Blasticidin S (Life Technologies #A11139-03)). The baculovirus solution was then added 1:200 (have varied according to virus batch) to the cells (measurement of THP1(vir) IC50). […] 30 μL of the cell/virus-mix were added to each well of the compound plate from column 1-23 via MultiDrop Combi dispenser (5000 cells/well). In column 24, 30 μl/5000 cells/well without virus were added as a low control.
# The plates were then incubated for 18 h at 37° C. in a humidified incubator.
# Following that, 15 μL of QuantiLuc detection reagent (InvivoGen #rep-qlcg5) were added to each well using a MultiDrop Combi. Measurement was done immediately after the addition using an EnVision reader (US-luminescence read-mode).
# Data Evaluation and Calculation:
# For data evaluation and calculation, the measurement of the low control was set as 0% control and the measurement of the high control was set as 100% control. The IC50 values were calculated using the standard 4 parameter logistic regression formula. Calculation: [y=(a−d)/(1+(x/c)^b)+d], a=low value, d=high value; x=conc M; c=IC50 M; b=slope
# Human cGAS enzyme = Human cGAS enzyme (Homo sapiens (Human), UniProt Q8N884); assay: Human cGAS enzyme assay (hcGAS IC50, in vitro), cGAMP formation by RapidFire MS; format: biochemical;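 note: recombinant human cGAS activated by 45 bp dsDNA with 30 µM each ATP and GTP, 90 min, cGAMP vs cyclic-di-GMP standard by MS, 8-point titration from 10 µM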
# [3] = target: cellular cGAS activity in dsDNA-stimulated human whole blood (Homo sapiens (Human), UniProt Q8N884); assay: Human whole blood assay (hWB IC50): IFNα2a production after dsDNA transfection; format: cell-based;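 note: IFNα-2a in plasma measured by MSD electrochemiluminescence immunoassay after 22 h at 37 °C, 8-point dilution series from 10 µM top concentration, DMSO wells as controls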
# [4] = Table 1, virus-stimulated THP1 cells, read-out: THP(vir) IC50
# [5] = Table 1, cGAMP-stimulated THP1 cells, read-out: THP(cGAMP) IC50
# [6] = Table 1, dsDNA-stimulated human whole blood
# Human cGAS enzyme, sequence (Q8N884 whole entry): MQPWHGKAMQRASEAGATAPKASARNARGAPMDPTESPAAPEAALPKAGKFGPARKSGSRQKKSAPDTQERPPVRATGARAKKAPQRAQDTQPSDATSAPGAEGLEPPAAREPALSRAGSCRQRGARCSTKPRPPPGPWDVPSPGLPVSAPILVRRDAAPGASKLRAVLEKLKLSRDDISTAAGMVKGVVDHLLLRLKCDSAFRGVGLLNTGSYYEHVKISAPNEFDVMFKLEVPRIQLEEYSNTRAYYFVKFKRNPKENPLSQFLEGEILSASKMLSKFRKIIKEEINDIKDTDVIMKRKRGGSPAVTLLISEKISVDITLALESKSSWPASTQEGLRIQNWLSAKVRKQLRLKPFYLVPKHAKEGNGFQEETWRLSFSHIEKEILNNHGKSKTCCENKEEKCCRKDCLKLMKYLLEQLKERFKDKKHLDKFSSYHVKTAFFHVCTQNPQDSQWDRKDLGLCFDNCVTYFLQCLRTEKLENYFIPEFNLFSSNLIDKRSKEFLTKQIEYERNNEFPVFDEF
# cellular cGAS activity in dsDNA-stimulated human whole blood, sequence (Q8N884 whole entry): as above
# cellular cGAS activity in baculovirus-stimulated THP1-Dual cells, sequence (Q8N884 whole entry): as above
Compound,"pIC50 [1, 4]",pIC50 (Human cGAS enzyme; Table 1),"pIC50 [3, 6]","pIC50 [2, 5]",Ratio THP(cGAMP) IC50/ THP(vir) IC50 ([2]; Table 1),"pIC50 ([1]; Table 2, compounds from WO 2020/142729, read-out: THP1(vir) IC50)","pIC50 ([2]; Table 2, compounds from WO 2020/142729, read-out: THP1(cGAMP) IC50)","pIC50 ([3]; Table 2, compounds from WO 2020/142729)","pIC50 ([1]; virus-stimulated THP1 cells, read-out: THP1(vir) IC50)","pIC50 (Human cGAS enzyme; Table 2, compounds from WO 2020/142729 re-tested in the applicant's assay)"
"C[C@H]1CN2CC[C@]1(F)c1cc(Cl)cnc1O[C@H]1C[C@@H](C(=O)O)N(C1)c1nc(nc3c1oc1ccccc13)CC(=O)NCCCC2=O [Example 01, (1R,9S,11S,34S)-4-Chloro-1-fluoro-34-methyl-26,31-dioxo-8,15-dioxa-6,12,23,27,32,37-hexaaza-heptacyclo[30.2.2.1^9,12.1^13,24.0^2,7.0^14,22.0^16,21]octatriaconta-2,4,6,13(37),14(22),16(21),17,19,23-nonaene-11-carboxylic acid]",6.82,7.60,6.68,5.54,19,,,,,
"C[C@H]1CN2CC[C@]1(F)c1cc(Cl)cnc1O[C@H]1C[C@@H](C(=O)O)N(C1)c1nc(nc3c1oc1ccccc13)C(F)(F)CCCCCC2=O [Example 05, (1R,9S,11S,34S)-4-chloro-1,25,25-trifluoro-34-methyl-31-oxo-8,15-dioxa-6,12,23,32,37-pentaazaheptacyclo[30.2.2.1^9,12.1^13,24.0^2,7.0^14,22.0^16,21]octatriaconta-2,4,6,13,16,18,20,22,24(37)-nonaene-11-carboxylicacid]",7.23,7.92,6.94,5.03,158,,,,,
O=C(O)[C@@H]1C[C@H]2CN1c1nc(nc3c1oc1ccccc13)C(F)(F)CCCCCC(=O)N1CCC(F)(CC1)c1cc(Cl)cnc1O2 [Example 07],6.49,7.00,6.12,4.92,37,,,,,
"C[C@H]1CN2CC[C@]1(F)c1cc(Cl)cnc1O[C@H]1C[C@@H](C(=O)O)N(C1)c1nc(nc3c1oc1ccccc13)COCCCC(F)(F)C2=O [Example 10, (1R,9S,11S,34S)-4-chloro-1,30,30-trifluoro-34-methyl-31-oxo-8,15,26-trioxa-6,12,23,32,37-pentaazaheptacyclo[30.2.2.1^9,12.1^13,24.0^2,7.0^14,22.0^16,21]octatriaconta-2,4,6,13,16,18,20,22,24(37)-nonaene-11-carboxylic acid]",6.72,7.17,6.47,4.92,61,,,,,
Cc1nc(N2C[C@@H](Cc3nn[nH]n3)C[C@H]2C(=O)O)c2oc3ccccc3c2n1 [Example 25],,,,,,< 4.77,< 4.77,< 5.00,,
"C[C@H]1CN2CC[C@]1(F)c1cc(Cl)cnc1O[C@H]1C[C@@H](C(=O)O)N(C1)c1nc(nc3c1oc1ccccc13)CCCCOC2=O [Example 35, (1R,9S,11S,33S)-4-chloro-1-fluoro-33-methyl-30-oxo-8,15,29-trioxa-6,12,23,31,36-pentaazaheptacyclo[29.2.2.1^9,12.1^13,24.0^2,7.0^14,22.0^16,21]heptatriaconta-2,4,6,13(36),14(22),16(21),17,19,23-nonaene-11-carboxylic acid]",6.08,,6.39,,,,,,,
"Cc1nc(N2C[C@@H](Cc3nn[nH]n3)C[C@H]2C(=O)O)c2oc3ccccc3c2n1 [Example No. 25 of WO 2020/142729, reference compound]",,,,,,,,,4.77,7.26

# Continued, in another order:
"pIC50 [1, 4]",pIC50 (Human cGAS enzyme; Table 1),"pIC50 [3, 6]",Compound,"pIC50 [2, 5]",Ratio THP(cGAMP) IC50/ THP(vir) IC50 ([2]; Table 1),"pIC50 ([1]; Table 2, compounds from WO 2020/142729, read-out: THP1(vir) IC50)","pIC50 ([2]; Table 2, compounds from WO 2020/142729, read-out: THP1(cGAMP) IC50)","pIC50 ([3]; Table 2, compounds from WO 2020/142729)","pIC50 ([1]; virus-stimulated THP1 cells, read-out: THP1(vir) IC50)","pIC50 (Human cGAS enzyme; Table 2, compounds from WO 2020/142729 re-tested in the applicant's assay)"
6.62,7.35,6.79,"C[C@H]1CCCOCc2nc(c3oc4ccccc4c3n2)N2C[C@H](C[C@H]2C(=O)O)Oc2ncc(Cl)cc2[C@@]2(F)CCN(C[C@@H]2C)C1=O (single isomer, unassigned) [Example 09]",5.46,15,,,,,
6.96,7.77,6.94,"C[C@H]1CN2CC[C@]1(F)c1cc(Cl)cnc1O[C@H]1C[C@@H](C(=O)O)N(C1)c1nc(nc3c1oc1ccccc13)CC(=O)NCCOC2=O [Example 02, (1R,9S,11S,34S)-4-chloro-1-fluoro-34-methyl-26,31-dioxo-8,15,30-trioxa-6,12,23,27,32,37-hexaazaheptacyclo[30.2.2.1^9,12.1^13,24.0^14,22..0^16,21]octatriaconta-2,4,6,13(37),14(22),16(21),17,19,23-nonaene-11-carboxylic acid]",< 5.00,94,,,,,
6.82,7.74,6.65,"C[C@H]1CN2CC[C@]1(F)c1cc(Cl)cnc1O[C@H]1C[C@@H](C(=O)O)N(C1)c1nc(nc3c1oc1ccccc13)C(F)(F)CCCCC(F)(F)C2=O [Example 06, (1R,9S,11S,34S)-4-chloro-1,25,25,30,30-pentafluoro-34-methyl-31-oxo-8,15-dioxa-6,12,23,32,37-pentaazaheptacyclo[30.2.2.1^9,12.1^13,24.0^2,7.0^14,22.0^16,21]-octatriaconta-2,4,6,13(37),14(22),16(21),17,19,23-nonaene-11-carboxylic acid]",< 5.00,65,,,,,
6.85,7.66,7.36,"C[C@H]1CN2CC[C@]1(F)c1cc(Cl)cnc1O[C@H]1C[C@@H](C(=O)O)N(C1)c1nc(nc3c1oc1ccccc13)COCCCCC2=O [Example 08, (1R,9S,11S,34S)-4-chloro-1-fluoro-34-methyl-31-oxo-8,15,26-trioxa-6,12,23,32,37-pentaazabestacyclo[30.2.2.1^9,12.1^13,24.0^2,7.0^14,22.0^16,21]octatriaconta-2,4,6,13(37),14(22),16(21),17,19,23-nonaene-11-carboxylic acid]",< 5.00,69,,,,,
7.96,8.55,8.05,"C[C@H]1CN2CC[C@]1(F)c1cc(Cl)cnc1O[C@H]1C[C@@H](C(=O)O)N(C1)c1nc(nc3c1oc1ccccc13)COC(=O)CCC2=O [Example 11, (1R,9S,11S,33S)-4-Chloro-1-fluoro-33-methyl-27,30-dioxo-8,15,26-trioxa-6,12,23,31,36-pentaazaheptacyclo[29.2.2.1^9,12.1^13,24.0^2,7.0^14,22.0^16,21]heptatriaconta-2,4,6,13(36),14(22),16(21),17,19,23-nonaene-11-carboxylic acid]",< 5.00,902,,,,,
6.21,7.77,7.08,C[C@H]1CN2CC[C@]1(F)c1cc(Cl)cnc1O[C@H]1C[C@@H](C(=O)O)N(C1)c1nc(nc3c1oc1ccccc13)COCCCCCC2=O [Example 12],5.00,17,,,,,
7.38,7.66,6.83,"C[C@H]1CN2CC[C@]1(F)c1cc(Cl)cnc1O[C@H]1C[C@@H](C(=O)O)N(C1)c1nc(nc3c1oc1ccccc13)COCCCOC2=O [Example 13, (1R,9S,11S,34S)-4-chloro-1-fluoro-34-methyl-31-oxo-8,15,26,30-tetraoxa-6,12,23,32,37-pentaaabestacyclo[30.2.2.1^9,12.1^13,24.0^14,22.0^16,21]octatriaconta-2(7),3,5,13(37),14(22),16(21),17,19,23-nonaene-11-carboxylic acid]",4.80,256,,,,,
7.44,7.82,6.87,C[C@H]1CN2CC[C@]1(F)c1cc(Cl)cnc1O[C@H]1C[C@@H](C(=O)O)N(C1)c1nc(nc3c1oc1ccccc13)COCCOCC2=O [Example 14],< 5.00,282,,,,,
